Experimental data from patent US9913846B2, “Combination of a PI3 kinase inhibitor with pacitaxel for use in the treatment or prevention of a cancer of the head and neck” (NOVARTIS AG, priority 2013, dated 2018).
Blank lines part the entries; values can stand above or below the compound they belong to.

Tests used:
UMSCC5 = assay: Cancer cell growth inhibition, cell counting after 5 days; format: cell-based; details: UM-SCC-5, 120 h
Procedure: (§1) Data was compared with untreated controls. […] Experiments were carried out in duplicate. The table below details the results.

UPCISCC153 = assay: as above; format: cell-based; details: 120 h
Procedure: as §1

UMSCC11A = assay: as above; format: cell-based; details: 120 h
Procedure: as §1

UMSCC1 = assay: as above; format: cell-based; details: Homo sapiens, 120 h
Procedure: as §1

[1] = Concentration delivered to patients; format: in vivo, human; details: patients treated at 100 mg daily; expected
Text: (§2) (Red=KRAS mutant=UMSCC-74A. Yellow=PI3KCA mutant=CAL33).

[2] = tested on: head and neck cancer cell lines; assay: Sensitivity of head and neck cancer cell line panels to Compound A (FIG. 1); format: cell-based; details: majority of the cell lines of two independently tested panels
Text: as §2

[3] = tested on: pAKT in FaDu xenograft (Hypopharynx squamous cell carcinoma); assay: pAKT in tumor tissue of FaDu xenograft (FIG. 2); format: in vivo; details: Compound A at 30 mg daily

- concentration delivered to patients [1]: around 1 μM
- IC50 [2]: < 1000 nM
SMILES: Nc1cc(C(F)(F)F)c(-c2cc(N3CCOCC3)nc(N3CCOCC3)n2)cn1 [Compound A, 5-(2,6-di-morpholin-4-yl-pyrimidin-4-yl)-4-trifluoromethyl-pyridin-2-ylamine]
- inhibition at 1 µM (UMSCC5; Compound A 1 μM): 28%
- inhibition at 1 µM (UPCISCC153; Compound A 1 μM): 15%
- inhibition at 1 µM (UMSCC11A; Compound A 1 μM): 21.9%
- inhibition at 1 µM (UMSCC1; Compound A 1 μM): 21.2%
- pAKT in tumor tissue [3]: inhibition of pAKT

SMILES: CC(=O)O[C@H]1C(=O)[C@@]2(C)[C@H]([C@H](OC(=O)c3ccccc3)[C@]3(O)C[C@H](OC(=O)[C@H](O)[C@@H](NC(=O)c4ccccc4)c4ccccc4)C(C)=C1C3(C)C)[C@]1(OC(C)=O)CO[C@@H]1C[C@@H]2O [Paclitaxel, 5β,20-Epoxy1,2a,4,7β, 10β, 13a-hexahydroxytax-11-en-9-one 4, 10,-diacetate 2-benzoate 13-ester with (2R, 3S)—N-benzoyl-3-phenylisoserine, reference compound]
- inhibition at 0.001 µg/mL (UMSCC5; paclitaxel 1 ng/ml): 7.6%
- inhibition at 0.001 µg/mL (UPCISCC153; paclitaxel 1 ng/ml): 0%
- inhibition at 0.001 µg/mL (UMSCC11A; paclitaxel 1 ng/ml): 3.13%
- inhibition at 0.001 µg/mL (UMSCC1; paclitaxel 1 ng/ml): 4.6%
